# Tested on: ALOMY (blackgrass)
# Assay: Post-Emergent Test III (Wheat and Barley)
# Assay type: in vivo, Alopecurus myosuroides
# Conditions: Alopecurus myosuroides, post-emergence, 504 h; 35 g ai/ha, postemergence; read-out: Visual Growth Reduction (%) 21 Days After Application, ALOMY
# Protocol: (§1) Seeds of the desired test plant species were planted in Sun Gro MetroMix® 306 planting mixture, which typically has a pH of 6.0 to 6.8 and an organic matter content of about 30 percent, in plastic pots with a surface area of 103.2 square centimeters (cm^2). When required to ensure good germination and healthy plants, a fungicide treatment and/or other chemical or physical treatment was applied. The plants were grown for 7-36 days in a greenhouse with an approximate 14 h photoperiod which was maintained at about 18° C. during the day and 17° C. during the night. Nutrients and water were added on a regular basis and supplemental lighting was provided with overhead metal halide 1000-Watt lamps as necessary. The plants were employed for testing when they reached the second or third true leaf stage.
# (§2) A weighed amount, determined by the highest rate to be tested, of each test compound was placed in a 25 mL glass vial and was dissolved in 4 mL of a 97:3 v/v mixture of acetone and DMSO to obtain concentrated stock solutions. […] The concentrated stock solutions obtained were diluted with 20 mL of an aqueous mixture containing acetone, water, isopropyl alcohol, DMSO, Agri-Dex crop oil concentrate, and X-77 surfactant in a 48:39:10:1.5:1.5:0.02 v/v ratio to obtain spray solutions containing the highest application rates. Additional application rates were obtained by serial dilution of 12 mL of the high rate solution into a solution containing 2 mL of 97:3 v/v mixture of acetone and DMSO and 10 mL of an aqueous mixture containing acetone, water, isopropyl alcohol, DMSO, Agri-Dex crop oil concentrate, and X-77 surfactant in a 48:39:10:1.5:1.5:0.02 v/v ratio to obtain ½×, ¼×, ⅛× and 1/16× rates of the high rate. Compound requirements are based upon a 12 mL application volume at a rate of 187 liters per hectare (L/ha). Formulated compounds were applied to the plant material with an overhead Mandel track sprayer equipped with 8002E nozzles calibrated to deliver 187 L/ha over an application area of 0.503 square meters at a spray height of 18 inches (43 cm) above the average plant canopy height. Control plants were sprayed in the same manner with the solvent blank.
# (§3) The treated plants and control plants were placed in a greenhouse as described above and watered by subirrigation to prevent wash-off of the test compounds. After 21 dAYS, the condition of the test plants as compared with that of the untreated plants was determined visually and scored on a scale of 0 to 100 percent where 0 corresponds to no injury and 100 corresponds to complete kill and presented as indicated in Table A.
# (§4) By applying the well-accepted probit analysis as described by J. Berkson in Journal of the American Statistical Society, 48, 565 (1953) and by D. Finney in “Probit Analysis” Cambridge University Press (1952), herbicidal injury of a specific compound at various rates can be used to calculate GR10, GR20, GR50, GR80 and GR90 values, which are defined as growth reduction factors that correspond to the effective dose of herbicide required to provide plant growth reduction (GR) of 10 percent, 20 percent, 50 percent, 80 percent and 90 percent, respectively. Probit analysis was applied to data collected from multiple dose rates of individual compounds utilizing the procedures explained in the following examples. The analysis of those dose rates is captured in the following tables.
row,Compound,pest or weed control at 35 g/ha [%]
1,COC(=O)c1nc(-c2ccc(Cl)c(F)c2OC)cc(N)c1Cl [Compound 20],45 to 59

# Same assay, conditions: Alopecurus myosuroides, post-emergence, 504 h; 70 g ai/ha, postemergence; read-out: Visual Growth Reduction (%) 21 Days After Application, ALOMY
row,Compound,pest or weed control at 70 g/ha [%]
1,COC(=O)c1nc(-c2ccc(Cl)c(F)c2OC)cc(N)c1Cl [Compound 20],75 to 84

# Same assay, conditions: Alopecurus myosuroides, post-emergence, 504 h; 140 g ai/ha, postemergence; read-out: Visual Growth Reduction (%) 21 Days After Application, ALOMY
row,Compound,pest or weed control at 140 g/ha [%]
1,COC(=O)c1nc(-c2ccc(Cl)c(F)c2OC)cc(N)c1Cl [Compound 20],85 to 94

# Same assay, conditions: effective dose for growth reduction of 50 percent, probit analysis
row,Compound,"GR50, ALOMY [g ai/ha]"
1,COC(=O)c1nc(-c2ccc(Cl)c(F)c2OC)cc(N)c1Cl [Compound 20],86

# Same assay, conditions: effective dose for growth reduction of 80 percent, probit analysis
row,Compound,"GR80, ALOMY [g ai/ha]"
1,COC(=O)c1nc(-c2ccc(Cl)c(F)c2OC)cc(N)c1Cl [Compound 20],>140

# Tested on: APESV (windgrass)
# Assay: Post-Emergent Test III (Wheat and Barley)
# Assay type: in vivo, Apera spica-venti
# Conditions: Apera spica-venti, post-emergence, 504 h; 35 g ai/ha, postemergence; read-out: Visual Growth Reduction (%) 21 Days After Application, APESV
# Protocol: as §1, §2, §3, §4
row,Compound,pest or weed control at 35 g/ha [%]
1,COC(=O)c1nc(-c2ccc(Cl)c(F)c2OC)cc(N)c1Cl [Compound 20],0 to 29

# Same assay, conditions: Apera spica-venti, post-emergence, 504 h; 70 g ai/ha, postemergence; read-out: Visual Growth Reduction (%) 21 Days After Application, APESV
row,Compound,pest or weed control at 70 g/ha [%]
1,COC(=O)c1nc(-c2ccc(Cl)c(F)c2OC)cc(N)c1Cl [Compound 20],60 to 74

# Same assay, conditions: Apera spica-venti, post-emergence, 504 h; 140 g ai/ha, postemergence; read-out: Visual Growth Reduction (%) 21 Days After Application, APESV
row,Compound,pest or weed control at 140 g/ha [%]
1,COC(=O)c1nc(-c2ccc(Cl)c(F)c2OC)cc(N)c1Cl [Compound 20],75 to 84

# Same assay, conditions: effective dose for growth reduction of 50 percent, probit analysis
row,Compound,"GR50, APESV [g ai/ha]"
1,COC(=O)c1nc(-c2ccc(Cl)c(F)c2OC)cc(N)c1Cl [Compound 20],117

# Same assay, conditions: effective dose for growth reduction of 80 percent, probit analysis
row,Compound,"GR80, APESV [g ai/ha]"
1,COC(=O)c1nc(-c2ccc(Cl)c(F)c2OC)cc(N)c1Cl [Compound 20],>140

# Tested on: KCHSC (kochia)
# Assay: Post-Emergent Test III (Wheat and Barley)
# Assay type: in vivo, Kochia scoparia
# Conditions: Bassia scoparia, post-emergence, 504 h; 35 g ai/ha, postemergence; read-out: Visual Growth Reduction (%) 21 Days After Application, KCHSC
# Protocol: as §1, §2, §3, §4
row,Compound,pest or weed control at 35 g/ha [%]
1,COC(=O)c1nc(-c2ccc(Cl)c(F)c2OC)cc(N)c1Cl [Compound 20],85 to 94

# Same assay, conditions: Bassia scoparia, post-emergence, 504 h; 70 g ai/ha, postemergence; read-out: Visual Growth Reduction (%) 21 Days After Application, KCHSC
row,Compound,pest or weed control at 70 g/ha [%]
1,COC(=O)c1nc(-c2ccc(Cl)c(F)c2OC)cc(N)c1Cl [Compound 20],95 to 100

# Same assay, conditions: Bassia scoparia, post-emergence, 504 h; 140 g ai/ha, postemergence; read-out: Visual Growth Reduction (%) 21 Days After Application, KCHSC
row,Compound,pest or weed control at 140 g/ha [%]
1,COC(=O)c1nc(-c2ccc(Cl)c(F)c2OC)cc(N)c1Cl [Compound 20],95 to 100

# Same assay, conditions: effective dose for growth reduction of 50 percent, probit analysis
row,Compound,"GR50, KCHSC [g ai/ha]"
1,COC(=O)c1nc(-c2ccc(Cl)c(F)c2OC)cc(N)c1Cl [Compound 20],2

# Same assay, conditions: effective dose for growth reduction of 80 percent, probit analysis
row,Compound,"GR80, KCHSC [g ai/ha]"
1,COC(=O)c1nc(-c2ccc(Cl)c(F)c2OC)cc(N)c1Cl [Compound 20],10

# Tested on: LOLSS
# Assay: Post-Emergent Test III (Wheat and Barley)
# Assay type: in vivo
# Conditions: effective dose for growth reduction of 50 percent, probit analysis
# Protocol: as §1, §2, §3, §4
row,Compound,"GR50, LOLSS [g ai/ha]"
1,COC(=O)c1nc(-c2ccc(Cl)c(F)c2OC)cc(N)c1Cl [Compound 20],>140

# Same assay, conditions: effective dose for growth reduction of 80 percent, probit analysis
row,Compound,"GR80, LOLSS [g ai/ha]"
1,COC(=O)c1nc(-c2ccc(Cl)c(F)c2OC)cc(N)c1Cl [Compound 20],>140

# Same assay, conditions: post-emergence, 504 h; 35 g ai/ha, postemergence; read-out: Visual Growth Reduction (%) 21 Days After Application, LOLSS
row,Compound,pest or weed control at 35 g/ha [%]
1,COC(=O)c1nc(-c2ccc(Cl)c(F)c2OC)cc(N)c1Cl [Compound 20],0 to 29

# Same assay, conditions: post-emergence, 504 h; 70 g ai/ha, postemergence; read-out: Visual Growth Reduction (%) 21 Days After Application, LOLSS
row,Compound,pest or weed control at 70 g/ha [%]
1,COC(=O)c1nc(-c2ccc(Cl)c(F)c2OC)cc(N)c1Cl [Compound 20],0 to 29

# Same assay, conditions: post-emergence, 504 h; 140 g ai/ha, postemergence; read-out: Visual Growth Reduction (%) 21 Days After Application, LOLSS
row,Compound,pest or weed control at 140 g/ha [%]
1,COC(=O)c1nc(-c2ccc(Cl)c(F)c2OC)cc(N)c1Cl [Compound 20],30 to 44

# Tested on: TRZSS
# Assay: Post-Emergent Test III (Wheat and Barley)
# Assay type: in vivo
# Conditions: Triticum aestivum, post-emergence, 504 h; 35 g ai/ha, postemergence; read-out: Visual Growth Reduction (%) 21 Days After Application, TRZSS
# Protocol: as §1, §2, §3, §4
row,Compound,pest or weed control at 35 g/ha [%]
1,COC(=O)c1nc(-c2ccc(Cl)c(F)c2OC)cc(N)c1Cl [Compound 20],85 to 94

# Same assay, conditions: Triticum aestivum, post-emergence, 504 h; 70 g ai/ha, postemergence; read-out: Visual Growth Reduction (%) 21 Days After Application, TRZSS
row,Compound,pest or weed control at 70 g/ha [%]
1,COC(=O)c1nc(-c2ccc(Cl)c(F)c2OC)cc(N)c1Cl [Compound 20],85 to 94

# Same assay, conditions: Triticum aestivum, post-emergence, 504 h; 140 g ai/ha, postemergence; read-out: Visual Growth Reduction (%) 21 Days After Application, TRZSS
row,Compound,pest or weed control at 140 g/ha [%]
1,COC(=O)c1nc(-c2ccc(Cl)c(F)c2OC)cc(N)c1Cl [Compound 20],85 to 94

# Same assay, conditions: effective dose for growth reduction of 20 percent, probit analysis
row,Compound,"GR20, TRZSS [g ai/ha]"
1,COC(=O)c1nc(-c2ccc(Cl)c(F)c2OC)cc(N)c1Cl [Compound 20],2

# Tested on: HORSS
# Assay: Post-Emergent Test III (Wheat and Barley)
# Assay type: in vivo
# Conditions: Hordeum vulgare, post-emergence, 504 h; 35 g ai/ha, postemergence; read-out: Visual Growth Reduction (%) 21 Days After Application, HORSS
# Protocol: as §1, §2, §3, §4
row,Compound,pest or weed control at 35 g/ha [%]
1,COC(=O)c1nc(-c2ccc(Cl)c(F)c2OC)cc(N)c1Cl [Compound 20],45 to 59

# Same assay, conditions: Hordeum vulgare, post-emergence, 504 h; 70 g ai/ha, postemergence; read-out: Visual Growth Reduction (%) 21 Days After Application, HORSS
row,Compound,pest or weed control at 70 g/ha [%]
1,COC(=O)c1nc(-c2ccc(Cl)c(F)c2OC)cc(N)c1Cl [Compound 20],75 to 84

# Same assay, conditions: Hordeum vulgare, post-emergence, 504 h; 140 g ai/ha, postemergence; read-out: Visual Growth Reduction (%) 21 Days After Application, HORSS
row,Compound,pest or weed control at 140 g/ha [%]
1,COC(=O)c1nc(-c2ccc(Cl)c(F)c2OC)cc(N)c1Cl [Compound 20],85 to 94

# Same assay, conditions: effective dose for growth reduction of 20 percent, probit analysis
row,Compound,"GR20, HORSS [g ai/ha]"
1,COC(=O)c1nc(-c2ccc(Cl)c(F)c2OC)cc(N)c1Cl [Compound 20],7
